Assay results taken from US20090099195A1 (ASTRAZENECA AB, priority 2007, published 2009).

Biological target: T1, hP2X3 (human Purinergic P2X receptors subtype 3), clone B (Homo sapiens, UniProt P56373)
T1 sequence (P56373 1-397): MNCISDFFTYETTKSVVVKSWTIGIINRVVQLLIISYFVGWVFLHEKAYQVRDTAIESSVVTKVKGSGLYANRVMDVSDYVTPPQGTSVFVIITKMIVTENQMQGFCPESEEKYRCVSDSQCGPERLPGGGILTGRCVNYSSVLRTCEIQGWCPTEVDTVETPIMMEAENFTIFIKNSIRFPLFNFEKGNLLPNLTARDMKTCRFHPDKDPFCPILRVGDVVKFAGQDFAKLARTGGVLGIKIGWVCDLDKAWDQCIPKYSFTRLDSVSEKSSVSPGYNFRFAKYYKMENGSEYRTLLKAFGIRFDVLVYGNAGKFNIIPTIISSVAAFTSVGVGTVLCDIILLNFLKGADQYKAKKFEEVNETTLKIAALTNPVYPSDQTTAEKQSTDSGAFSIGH
Assay: hP2X3 FLIPR calcium (Fluo-4) antagonist assay, clone B
Settings: Human P2X3 FLIPR Clone B IC50 (nM), RLE cells expressing hP2X3 clone B (NM_002559); agonist 500 nM α,β-methylene-ATP
Procedure: The assay used a calcium indicator dye (Fluo-4) that emits fluorescence, the intensity of which is related to the concentration of calcium that entered the cell when P2X3 was activated and the channel opened. Activation of hP2X3 or rat P2X3 and rat P2X2/3 (from the coexpression of rat P2X3 and rat P2×2) is elicited the by P2X3 agonist α,β methylene-ATP (Sigma M6517), and the resulting fluorescence is measured with a FLIPR II™ instrument (Molecular Devices). Compounds are tested for their ability to inhibit the agonist-induced fluorescent signal.
For the rat P2X2/3 HEK-TREX cells, induction of the rat P2X3 expression is used to generate the rat P2X2/3 channels in HEK-TREX cells and performed by addition of 1 μg/mL tetracycline (Invitrogen) 24 h prior to compounds testing to the HEK-TREX expressing the rat P2X2 constitutively. On the day of the experiment, the cells and test compounds are prepared as follows. […] After preparing the compounds, the medium is removed from the cell plates by inversion. A loading solution of 30 μL assay buffer containing 4 μM of the calcium indicator dye FLUO-4 AM (Molecular Probes F14202) is added to each well using a Multidrop (Labsystems). […] The incubation is terminated by washing the cells four times in assay buffer using a Skatron Embla (Molecular Devices), and 25 μL of assay buffer was left in each well. Cell plates are then transferred to the FLIPR. Experiments are initiated by measuring a baseline fluorescence reading for 10 seconds, followed by the addition of 12.5 μL of cpds and data sampling for a total 280 seconds. The experiments are terminated by addition of 12.5 μL of a reference agonist (500 nM α,β-methylene-ATP) or buffer, producing a final assay volume of 50 μL followed by data sampling for an additional 280 seconds.
In P2X3 antagonist experiments (human and rat assays) data are analysed as normalised maximal peak fluorescence monitored following agonist addition and calculated as percent of relative fluorescent counts from control agonist. The dose-response antagonist inhibition curves are analyzed in a 4-parameter sigmoidal fit using a non-linear curve-fitting program (XLfit version 5.0.6, ID Business Solutions Limited, Guildford, UK).

CC(=O)N1CCN(c2nc3c(c(N4CCC4Cc4ccccc4)n2)CN(C(C)C)C3=O)CC1 (centres unmarked) [Example 273, 4-(4-acetylpiperazin-1-yl)-2-(2-benzylazetidin-1-yl)-8-propan-2-yl-3,5,8-triazabicyclo[4.3.0]nona-1,3,5-trien-7-one]
IC50: 3200 nM

CC(=O)N1CCN(c2nc(NCc3nc(C4CCCC4)no3)c3c(n2)C(=O)N(C(C)C)C3)CC1 [Example 276, 4-(4-acetylpiperazin-1-yl)-2-[(3-cyclopentyl-1,2,4-oxadiazol-5-yl)methylamino]-8-propan-2-yl-3,5,8-triazabicyclo[4.3.0]nona-1,3,5-trien-7-one]
IC50: 590 nM

CC(=O)N1CCN(c2nc3c(c(N4CCC[C@@H]4C(=O)OC(C)(C)C)n2)CN(C(C)C)C3=O)CC1 [Example 277, tert-butyl (2R)-1-[4-(4-acetylpiperazin-1-yl)-7-oxo-8-propan-2-yl-3,5,8-triazabicyclo[4.3.0]nona-1,3,5-trien-2-yl]pyrrolidine-2-carboxylate]
IC50: 7700 nM

CC(=O)N1CCN(c2nc(NCc3noc(C4CCC4)n3)c3c(n2)C(=O)N(C(C)C)C3)CC1 [Example 278, 4-(4-acetylpiperazin-1-yl)-2-[(5-cyclobutyl-1,2,4-oxadiazol-3-yl)methylamino]-8-propan-2-yl-3,5,8-triazabicyclo[4.3.0]nona-1,3,5-trien-7-one]
IC50: 750 nM

CC(=O)N1CCN(c2nc3c(c(N4CCC[C@@H]4C(=O)N4CCc5ccccc54)n2)CN(C(C)C)C3=O)CC1 [Example 279, 4-(4-acetylpiperazin-1-yl)-2-[(2R)-2-(2,3-dihydroindole-1-carbonyl)pyrrolidin-1-yl]-8-propan-2-yl-3,5,8-triazabicyclo[4.3.0]nona-1,3,5-trien-7-one]
IC50: 1800 nM

CC(=O)N1CCN(c2nc3c(c(N4CCCC4c4nc(-c5ccccc5)no4)n2)CN(C(C)C)C3=O)CC1 (centres unmarked) [Example 280, 4-(4-acetylpiperazin-1-yl)-2-[2-(3-phenyl-1,2,4-oxadiazol-5-yl)pyrrolidin-1-yl]-8-propan-2-yl-3,5,8-triazabicyclo[4.3.0]nona-1,3,5-trien-7-one]
IC50: 5100 nM

CCOc1ccc(CC2CCCN2c2nc(N3CCN(C(C)=O)CC3)nc3c2CN(C(C)C)C3=O)cc1 (centres unmarked) [Example 289, 2-(4-acetylpiperazin-1-yl)-4-[2-[(4-ethoxyphenyl)methyl]pyrrolidin-1-yl]-6-isopropyl-5H-pyrrolo[4,3-e]pyrimidin-7-one]
IC50: 330 nM

COc1ccccc1CC1CCCN1c1nc(N2CCN(C(C)=O)CC2)nc2c1CN(C(C)C)C2=O (centres unmarked) [Example 290, 2-(4-acetylpiperazin-1-yl)-6-isopropyl-4-[2-[(2-methoxyphenyl)methyl]pyrrolidin-1-yl]-5H-pyrrolo[3,4-d]pyrimidin-7-one]
IC50: 2000 nM

COc1cccc(CC2CCCN2c2nc(N3CCN(C(C)=O)CC3)nc3c2CN(C(C)C)C3=O)c1 (centres unmarked) [Example 291, 2-(4-acetylpiperazin-1-yl)-6-isopropyl-4-[2-[(3-methoxyphenyl)methyl]pyrrolidin-1-yl]-5H-pyrrolo[3,4-d]pyrimidin-7-one]
IC50: 490 nM

CC(=O)N1CCN(c2nc3c(c(N4CCC[C@@H]4C(=O)OCc4ccc(Cl)cc4)n2)CN(C(C)C)C3=O)CC1 [Example 301, (4-chlorophenyl)methyl (2R)-1-[4-(4-acetylpiperazin-1-yl)-7-oxo-8-propan-2-yl-3,5,8-triazabicyclo[4.3.0]nona-1,3,5-trien-2-yl]pyrrolidine-2-carboxylate]
IC50: 2500 nM

CC(=O)N1CCN(c2nc3c(c(N4CCC[C@@H]4C(=O)NC4CCCCC4)n2)CN(C(C)C)C3=O)CC1 [Example 302, (2R)-1-[4-(4-acetylpiperazin-1-yl)-7-oxo-8-propan-2-yl-3,5,8-triazabicyclo[4.3.0]nona-1,3,5-trien-2-yl]-N-cyclohexyl-pyrrolidine-2-carboxamide]
IC50: 3100 nM
